Experiment [1] has as its system PC3 human prostate cancer cells. The class given is cell-based.
A further experiment deals with JAK1/JAK2. The format is cell-based, human.
Experiment [2] addresses T1, complement C3 (Homo sapiens, UniProt P01024). The class given is cell-based. As to conditions: 48 h.
Experiment [3] concerns the target T1, complement C3. The format is cell-based. As to conditions: 72 h.
In experiment [4] the test system is PC3 human prostate cancer cells. The class given is cell-based. The source holds these as a separate data set.

Where “and” joins values, the source holds several entries; their conditions need not be identical. Equal entries are not always repeated. Where two headings read alike, the source gives them in different places.

T1 sequence (P01024 672-1663): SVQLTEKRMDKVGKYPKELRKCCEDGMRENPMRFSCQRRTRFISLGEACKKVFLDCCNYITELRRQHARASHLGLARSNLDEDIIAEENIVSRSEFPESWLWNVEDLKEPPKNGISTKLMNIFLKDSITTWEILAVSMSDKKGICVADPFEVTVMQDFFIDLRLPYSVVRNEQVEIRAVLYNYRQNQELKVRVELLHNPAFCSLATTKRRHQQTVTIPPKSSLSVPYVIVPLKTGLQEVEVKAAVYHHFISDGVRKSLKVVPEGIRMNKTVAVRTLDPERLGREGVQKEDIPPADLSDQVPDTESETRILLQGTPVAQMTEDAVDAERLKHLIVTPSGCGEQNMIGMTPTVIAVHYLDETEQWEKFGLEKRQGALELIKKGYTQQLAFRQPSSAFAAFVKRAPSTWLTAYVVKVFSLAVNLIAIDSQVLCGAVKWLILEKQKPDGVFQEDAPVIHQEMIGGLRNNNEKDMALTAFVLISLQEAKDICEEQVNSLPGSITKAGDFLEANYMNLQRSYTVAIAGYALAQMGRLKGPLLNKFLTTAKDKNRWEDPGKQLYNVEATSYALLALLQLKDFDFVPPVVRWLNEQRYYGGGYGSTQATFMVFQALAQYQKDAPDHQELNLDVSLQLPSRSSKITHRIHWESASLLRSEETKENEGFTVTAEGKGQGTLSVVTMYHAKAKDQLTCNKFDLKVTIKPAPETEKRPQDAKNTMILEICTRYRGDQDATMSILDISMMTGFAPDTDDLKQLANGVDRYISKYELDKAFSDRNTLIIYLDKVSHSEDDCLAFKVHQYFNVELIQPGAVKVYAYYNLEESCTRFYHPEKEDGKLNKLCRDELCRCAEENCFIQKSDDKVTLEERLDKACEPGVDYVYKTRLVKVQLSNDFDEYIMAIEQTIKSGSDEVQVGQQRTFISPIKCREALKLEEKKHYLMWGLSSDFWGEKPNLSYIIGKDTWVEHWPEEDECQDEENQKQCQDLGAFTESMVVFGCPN
T1 sequence (P01024 23-667): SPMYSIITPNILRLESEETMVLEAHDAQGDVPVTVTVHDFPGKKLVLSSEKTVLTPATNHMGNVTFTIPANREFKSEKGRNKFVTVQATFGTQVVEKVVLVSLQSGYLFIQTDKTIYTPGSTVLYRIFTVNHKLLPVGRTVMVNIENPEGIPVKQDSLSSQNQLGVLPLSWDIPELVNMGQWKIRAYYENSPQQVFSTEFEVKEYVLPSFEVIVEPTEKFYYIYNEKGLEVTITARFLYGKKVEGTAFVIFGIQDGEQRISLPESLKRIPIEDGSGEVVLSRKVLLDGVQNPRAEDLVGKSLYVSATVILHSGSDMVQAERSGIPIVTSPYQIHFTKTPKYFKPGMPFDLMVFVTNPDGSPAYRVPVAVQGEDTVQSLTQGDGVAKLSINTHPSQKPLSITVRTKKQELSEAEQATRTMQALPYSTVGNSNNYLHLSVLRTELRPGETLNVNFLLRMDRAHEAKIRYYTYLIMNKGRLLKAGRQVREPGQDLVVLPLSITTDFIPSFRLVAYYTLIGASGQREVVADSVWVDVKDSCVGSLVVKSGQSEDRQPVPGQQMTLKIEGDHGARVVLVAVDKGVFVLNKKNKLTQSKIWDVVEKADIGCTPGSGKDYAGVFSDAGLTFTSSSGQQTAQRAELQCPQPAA

For the molecule `N#CC[C@H](C1CCCC1)n1cc(-c2ncnc3[nH]ccc23)cn1` [Ruxolitinib], the “Average Fluorescence Intensity Density” value in experiment [1] is 3.8 and 6.0; with JAK1/JAK2, 0.074 and 0.0755 and 0.0735.

On to `CC[C@H](C)[C@H](N)C(=O)N[C@H]1CSSC[C@@H](C(=O)N[C@H](C(N)=O)[C@@H](C)O)NC(=O)[C@H](CCCN=C(N)N)NC(=O)[C@H](Cc2cnc[nH]2)NC(=O)[C@H](Cc2cnc[nH]2)NC(=O)CNC(=O)[C@H](Cc2c[nH]c3ccccc23)NC(=O)[C@H](CC(=O)O)NC(=O)[C@H](CCC(N)=O)NC(=O)[C@H](C(C)C)NC(=O)[C@H](C(C)C)NC1=O` [compstatin], for which, on complement C3 [2], the “Average Fluorescence Intensity Density” value was 0.0945 and 0.0670 and 0.0920; the “increase of fluorescence intensity vs serum only control” value was 27.7%. Besides, at complement C3 [3], the “% Increase in Fluorescence” value was 50%, the “Average Fluorescence Intensity Density” value worked out at 0.09 and the “increase of fluorescent signal compared to control cells” value was found to be 50%. Also, in experiment [4], the “increase of fluorescence intensity (partial reversal of complement-mediated suppression of virus spreading)” value was 28.5%. In experiment [4] (48 h), the “Average Fluorescence Intensity Density” value is on record as 36.4.

(Values after US11505782B2 (priority 2018, dated 2022).)
